{"source": "patent US8853194B2", "about": "“Sterol derivatives and their synthesis and use” (priority 2009, dated 2014)", "test_system": "mouse hepatoma cells H22", "protocol": "Ascites mice S180 and H22 that had been vaccinated 7 days were sacrificed by cervical, from which ascites were obtained under sterile conditions respectively; the obtained ascites were washed twice with culture medium RPMI1640, and prepared to a 2×10^7/ml suspension in sterile physiological saline. The suspension of cell S180 was inoculated subcutaneously in the right axillas of 40 mice (0.1 ml/mouse) to produce solid tumor models; while the suspension of cell H22 was inoculated in abdominal cavities of 40 mice (0.2 ml/mouse) by conditional means under sterile conditions to produce ascites tumor models.\n90 mice were randomly divided into 9 groups of 3 types, wherein the first type group was a normal control group, the second type groups were S180 solid tumor groups including a positive (cyclophosphamide) control group, a negative control group, a low dose group and a high dose group, and the third type groups were H22 ascites groups including a positive (cyclophosphamide) control group, a negative control group, a low dose group and a high dose group. There were 10 mice in each group. The experiment was repeated for three times.\n[…], the negative control group was injected same volume of corn oil, and the positive control group was injected cyclophosphamide injection solution with the dose of 0.02 g/(Kg.d). The used injection volume was 0.1 ml/mouse and the injection was given as intraperitoneal injection every other day for 15 days. During the 15 days, general activities, fur, feces, etc. of the mice were daily observed. 24 hours after the last administration, mice that had been inoculated subcutaneously with S180 were sacrificed by cervical, from which tumors, thymus and spleen were taken out. After the last administration, mice that had been inoculated in abdominal cavities with H22 were conventionally bred continually, weighted and observed the survival time every day until all the mice in the negative group were dead.\n24 hours after the inoculation of ascites, the weight and the amount of abdominal circumference of the mice in the groups of ascites models were measured. The drug administration and breeding were continued according to different groups, the weight and the abdominal circumference were measured daily until one day before death. The weight increase (g) and abdominal-circumference increase (cm) were calculated. The experiment started on the day of tumor inoculation and ended on the day when all the mice in the negative control group were dead; the time of deaths were recorded, and the survival extending rate was calculated. Survival Extending Rate(%)=[(mean survival days of treatment group−mean survival days of negative control group)/mean survival days of control group]×100%\nAfter finishing the administration in all mice in the solid tumor group, the mice were sacrificed and their spleens and livers were weighed by electronic balance. The spleen index was equivalent to the spleen weight (mg) of mice in each group divided by the weight of the mice, while the liver index was equivalent to the liver weight […] divided by the weight (g) of the mice.", "key": {"[1]": {"details": "H22 ascites mice, low dose 16 mg/kg i.p. every other day for 15 days"}}, "note": "Where two headings read alike, the source gives them in different places.", "data": [{"smiles": "CC(C)CCC[C@@H](C)[C@H]1CC[C@@H]2[C@]1(C)CC[C@H]1[C@]23C=C[C@]2(CC(=O)CC[C@]12C)OO3", "note": "[CL168-6, 5α,8α-cyclicobioxygen-6-cholesten-3-one]", "values": [{"measurement": "Abdominal circumference increase (cm)", "setting": "H22 ascites mice, high dose 32 mg/kg i.p. every other day for 15 days", "result": "2.32 ± 0.71^(2)(4) cm"}, {"measurement": "Abdominal circumference increase (cm)", "setting": "[1]", "result": "2.84 ± 0.34^(2)(3) cm"}, {"measurement": "Survival extending rate (%)", "setting": "[1]", "result": 37.11, "unit": "%"}, {"measurement": "Survival time (day)", "setting": "[1]", "result": "13.3 ± 1.77^(4) day"}, {"measurement": "Weight increase (g)", "setting": "[1]", "result": "7.16 ± 1.39^(4) g"}, {"measurement": "Liver index (100 g/g)", "setting": "mouse, in vivo, ip, 16 mg/kg", "result": "4.9 ± 0.24^(1)(4) 100 g/g"}, {"measurement": "Spleen index (mg/g)", "setting": "mouse, in vivo, ip, 16 mg/kg", "result": "6.53 ± 1.29^(2)(4) mg/g"}, {"measurement": "Liver index (100 g/g)", "setting": "mouse, in vivo, ip, 32 mg/kg", "result": "5.19 ± 0.64^(2)(4) 100 g/g"}, {"measurement": "Spleen index (mg/g)", "setting": "mouse, in vivo, ip, 32 mg/kg", "result": "5.76 ± 0.96^(2)(4) mg/g"}, {"measurement": "Survival extending rate (%)", "setting": "mouse, in vivo, ip, 32 mg/kg", "result": 51.55, "unit": "%"}, {"measurement": "Survival time (day)", "setting": "mouse, in vivo, ip, 32 mg/kg", "result": "14.7 ± 1.41^(4) day"}, {"measurement": "Weight increase (g)", "setting": "mouse, in vivo, ip, 32 mg/kg", "result": "5.05 ± 1.88^(4) g"}]}]}
